Test results published in patent US11773096B2, “Small-molecule PI5P4K alpha/beta inhibitors and methods of treatment using same” (YALE UNIVERSITY, priority 2018, dated 2023).

Key:
[1] = test system: panel of 14 lipid kinases; assay: Lipid kinase panel (ADP-Glo), panel as a whole; conditions: compound 0.5 μM, ATP 10 μM
Protocol: (§2) In both titrations, the ATP concentration was fixed at 50 μM.

BT474 cells [2] = assay: Glucose consumption and lactate secretion in BT474 cells; format: cell-based
Protocol: To measure glucose consumption and lactate production, a total of 1×10^5 cells were seeded into each well of a 12-well plate and cultured in the presence of compound for 48 hrs. The culture media were collected and deproteinized by centrifugation using an Amicon Ultra centrifugal filter (3 kDa cut-off), while cells were lysed and used for protein concentration determination by BCA assay. The media were assayed immediately for glucose and lactate levels using colorimetric assay kits from BioVision following the manufacturer's protocols. The values were normalized against protein concentration. All measurements were made in triplicate.

NEK1 = NEK1 (Homo sapiens, UniProt Q96PY6); assay: HotSpot protein kinase panel; conditions: read-out: NEK1 activity remaining
p110α/p85α = p110α/p85α (Homo sapiens, UniProt P42336); assay: In vitro lipid kinase profiling
PI3Kδ = PI3Kδ (Homo sapiens, UniProt O00329); assay: Lipid kinase panel (ADP-Glo)
Protocol: as §2

MCF10A p53(−/−) cells [3] = assay: Cell death upon serum withdrawal, trypan blue staining; format: cell-based
Protocol: However, the difference is lost when EGF is added to the culture media. […] FIG. 17C: Cell death upon serum withdrawal is measured by trypan blue staining. p53(−/−) Cells are more susceptible to metabolic perturbations caused by glucose starvation.

EIF2AK3 = EIF2AK3 (Homo sapiens, UniProt Q9NZJ5); assay: HotSpot protein kinase panel; conditions: read-out: EIF2AK3 activity remaining
PI4P5Kα = PI4P5Kα (Homo sapiens, UniProt Q99755); assay: Lipid kinase assay / panel (ADP-Glo)
Excerpt: (§3) The assay kits for Plk1 and RSK2 were obtained from Promega (Madison, Wis.), which use ADP-Glo™ for activity detection.

c-MER = c-MER (Homo sapiens, UniProt Q12866); assay: HotSpot protein kinase panel; conditions: read-out: c-MER activity remaining
Plk1 = Plk1 (Homo sapiens, UniProt P53350); assay: Plk1 kinase assay kit (Promega, ADP-Glo); conditions: ATP 50 μM
Protocol: (§4) In both titrations, the ATP concentration was fixed at 50 μM. The assay kits for Plk1 and RSK2 were obtained from Promega (Madison, Wis.), which use ADP-Glo™ for activity detection.

PLK2 = PLK2 (Homo sapiens, UniProt Q9NYY3); assay: HotSpot protein kinase panel; conditions: read-out: PLK2 activity remaining
Protocol: as §4

BT-474 cells = assay: Intracellular ROS (DCFDA); format: cell-based; conditions: 20 μM
Protocol: 2′,7′-dichlorofluorescin diacetate (DCFDA) was used to assess intracellular ROS levels. DCFDA is deacetylated in the cell and oxidized by ROS to a fluorescent product 2′,7′-dichlorofluorescein (DCF). BT-474 cells were plated on a black clear-bottom 96-well plate (Corning 3603; 2×10^4 cells per well). ROS was measured by a DCFDA cellular ROS detection assay kit (Abcam) following the manufacturer's protocol. The cells were treated with compound for 6 hrs before fluorescence was measured using a SpectraMax M5 plate reader (excitation 485 nm, emission 535 nm).

C2Cl2 myotubes [4] = assay: Adenine nucleotides measurement in myotubes (luminescent ATP kit, HPLC, LC-MS/MS); format: cell-based, mouse
Protocol: C2Cl2 cells were plated and differentiated on the same type of plates. After treatment with compound overnight, total cellular ATP levels were measured by a luminescent ATP detection assay kit (Abcam) following manufacturer's protocol and normalized against the total protein concentration.
To measure nucleotide concentration using HPLC or LC-MS/MS, cells were rinsed three times with DPBS buffer at room temperature and lysed in ice-cold 0.4M perchloric acid (500 μl acid per 10^6 cells). The culture dishes were sealed and transferred to a −80° C. freezer. Cell lysates were then thawed on ice, scraped off, and centrifuged at 14,000 rpm at 4° C. for 10 min. The pellet was solubilized in 0.2M NaOH and set aside for measurement of protein concentration. The supernatant was transferred to clean tubes and neutralized with 3M KHCO3. The neutralized sample was kept on ice for 10 min and then transferred to a −80° C. freezer. After 2 hrs, thawed sample was centrifuged again to remove the precipitated perchlorate, filtered, adjusted according to protein concentration, aliquoted and stored at −80° C. The sample was thawed on ice just before the HPLC or LC-MS/MS experiment. […] The nucleotides were separated using 20 mM ammonium acetate in water (solvent A) and 5% acetonitrile in water buffered with 20 mM ammonium acetate (solvent B), which were both adjusted with ammonium hydroxide to pH 9.0. The flow rate was 0.7 mL/min, and the column temperature was maintained at 35° C. The gradient elution program was: 0-2 min, 0-5% B; 2-12 min, 5-10% B; 12-22 min, 10-20% B; 22-25 min, 20-100% B; 25-30 min, 100% B, and then back to 100% A for 1 min, which was maintained for another 9 min to recondition the column. Mass spectrometric ESI ionization was performed in the negative ion mode and the source parameters were set as follows: gas temperature, 200° C.; gas flow, 12 L/min; nebulizer pressure, 35 psi; sheath gas temperature, 200° C.; sheath gas flow, 12 L/min; capillary voltage, −4,000V; fragmentor voltage, 380V.

RSK2 = RSK2 (Homo sapiens, UniProt P51812); assay: RSK2 kinase assay kit (Promega, ADP-Glo)
Excerpt: as §3

Vps34 = Vps34 (Homo sapiens, UniProt Q8NEB9); assay: In vitro lipid kinase profiling
MCF10A p53(−/−) cells [5] = assay: Growth of isogenic MCF10A cells, p53(−/−); format: cell-based
C2Cl2 myotubes [6] = assay: Immunoblot analysis of signaling in C2Cl2 myotubes; format: cell-based, mouse
Protocol: BT-474 and MCF7 breast cancer cells, C2Cl2 mouse myoblast cells, and HEK 293T cells were maintained in high-glucose DMEM medium containing 10% FBS. L6 rat myoblast cells were maintained in α-MEM medium containing 10% FBS. For differentiation into myotubes, C2Cl2 cells were kept in DMEM medium containing 2% horse serum for 5 days, and L6 cells were kept in α-MEM medium containing 2% FBS for 7 days. Amino-acid-free DMEM medium was prepared using powder from USBio, and MEM amino acids solution was from Gibco. Media were all supplemented with 100 U/ml penicillin/streptomycin. Cell lines were purchased from ATCC.
(§1) After wash with cold DPBS buffer, cells were lysed in RIPA buffer that contained 50 mM Tris-HCl pH 8.0, 150 mM NaCl, 1 mM EDTA, 1 mM EGTA, 1% NP-40, 0.5% sodium deoxycholate, 0.1% SDS, and protease and phosphatase inhibitor cocktails (Roche). Total protein concentrations were measured using a BCA assay (Thermo scientific). Cell lysate (about 80 μg protein) was resolved by SDS-PAGE and blotted onto PVDF membranes. The membranes were probed overnight at 4° C. with appropriate primary antibodies (Cell Signaling Technology) and incubated with secondary fluorescent antibodies (LI-COR Biosciences) for 1 hr at room temperature before imaging by an Odyssey CLx system.

AMPK = assay: Western blot of ACC phosphorylation by AMPK in myotubes (FIG. 3F); format: cell-based
Protocol: as §1

BT474 cells [7] = assay: Proliferation (CellTiter-Glo); format: cell-based
Protocol: To measure cell number using the CellTiter-Glo 2.0 assay kit (Promega), cultured cells were equilibrated to room temperature for 30 min, and an equal volume of the CellTiter-Glo reagent was added and mixed for 2 min on an orbital shaker. The plates were incubated for another 10 min before luminescence was recorded using a SpectraMax M5 plate reader. To assess the effect of compound on growth, cells were plated onto white solid-bottom 96-well plates (coming 3917) at 2,000 cells per well in sextuplicate. After 24 hrs, compound (or DMSO control) was added to the wells, and cell number was determined after culturing for 0, 24, 48, and 72 hrs.

PIKfyve = PIKfyve (Homo sapiens, UniProt Q9Y2I7); assay: Lipid kinase assay
PIKfyve, sequence (Q9Y2I7 whole entry, species assumed): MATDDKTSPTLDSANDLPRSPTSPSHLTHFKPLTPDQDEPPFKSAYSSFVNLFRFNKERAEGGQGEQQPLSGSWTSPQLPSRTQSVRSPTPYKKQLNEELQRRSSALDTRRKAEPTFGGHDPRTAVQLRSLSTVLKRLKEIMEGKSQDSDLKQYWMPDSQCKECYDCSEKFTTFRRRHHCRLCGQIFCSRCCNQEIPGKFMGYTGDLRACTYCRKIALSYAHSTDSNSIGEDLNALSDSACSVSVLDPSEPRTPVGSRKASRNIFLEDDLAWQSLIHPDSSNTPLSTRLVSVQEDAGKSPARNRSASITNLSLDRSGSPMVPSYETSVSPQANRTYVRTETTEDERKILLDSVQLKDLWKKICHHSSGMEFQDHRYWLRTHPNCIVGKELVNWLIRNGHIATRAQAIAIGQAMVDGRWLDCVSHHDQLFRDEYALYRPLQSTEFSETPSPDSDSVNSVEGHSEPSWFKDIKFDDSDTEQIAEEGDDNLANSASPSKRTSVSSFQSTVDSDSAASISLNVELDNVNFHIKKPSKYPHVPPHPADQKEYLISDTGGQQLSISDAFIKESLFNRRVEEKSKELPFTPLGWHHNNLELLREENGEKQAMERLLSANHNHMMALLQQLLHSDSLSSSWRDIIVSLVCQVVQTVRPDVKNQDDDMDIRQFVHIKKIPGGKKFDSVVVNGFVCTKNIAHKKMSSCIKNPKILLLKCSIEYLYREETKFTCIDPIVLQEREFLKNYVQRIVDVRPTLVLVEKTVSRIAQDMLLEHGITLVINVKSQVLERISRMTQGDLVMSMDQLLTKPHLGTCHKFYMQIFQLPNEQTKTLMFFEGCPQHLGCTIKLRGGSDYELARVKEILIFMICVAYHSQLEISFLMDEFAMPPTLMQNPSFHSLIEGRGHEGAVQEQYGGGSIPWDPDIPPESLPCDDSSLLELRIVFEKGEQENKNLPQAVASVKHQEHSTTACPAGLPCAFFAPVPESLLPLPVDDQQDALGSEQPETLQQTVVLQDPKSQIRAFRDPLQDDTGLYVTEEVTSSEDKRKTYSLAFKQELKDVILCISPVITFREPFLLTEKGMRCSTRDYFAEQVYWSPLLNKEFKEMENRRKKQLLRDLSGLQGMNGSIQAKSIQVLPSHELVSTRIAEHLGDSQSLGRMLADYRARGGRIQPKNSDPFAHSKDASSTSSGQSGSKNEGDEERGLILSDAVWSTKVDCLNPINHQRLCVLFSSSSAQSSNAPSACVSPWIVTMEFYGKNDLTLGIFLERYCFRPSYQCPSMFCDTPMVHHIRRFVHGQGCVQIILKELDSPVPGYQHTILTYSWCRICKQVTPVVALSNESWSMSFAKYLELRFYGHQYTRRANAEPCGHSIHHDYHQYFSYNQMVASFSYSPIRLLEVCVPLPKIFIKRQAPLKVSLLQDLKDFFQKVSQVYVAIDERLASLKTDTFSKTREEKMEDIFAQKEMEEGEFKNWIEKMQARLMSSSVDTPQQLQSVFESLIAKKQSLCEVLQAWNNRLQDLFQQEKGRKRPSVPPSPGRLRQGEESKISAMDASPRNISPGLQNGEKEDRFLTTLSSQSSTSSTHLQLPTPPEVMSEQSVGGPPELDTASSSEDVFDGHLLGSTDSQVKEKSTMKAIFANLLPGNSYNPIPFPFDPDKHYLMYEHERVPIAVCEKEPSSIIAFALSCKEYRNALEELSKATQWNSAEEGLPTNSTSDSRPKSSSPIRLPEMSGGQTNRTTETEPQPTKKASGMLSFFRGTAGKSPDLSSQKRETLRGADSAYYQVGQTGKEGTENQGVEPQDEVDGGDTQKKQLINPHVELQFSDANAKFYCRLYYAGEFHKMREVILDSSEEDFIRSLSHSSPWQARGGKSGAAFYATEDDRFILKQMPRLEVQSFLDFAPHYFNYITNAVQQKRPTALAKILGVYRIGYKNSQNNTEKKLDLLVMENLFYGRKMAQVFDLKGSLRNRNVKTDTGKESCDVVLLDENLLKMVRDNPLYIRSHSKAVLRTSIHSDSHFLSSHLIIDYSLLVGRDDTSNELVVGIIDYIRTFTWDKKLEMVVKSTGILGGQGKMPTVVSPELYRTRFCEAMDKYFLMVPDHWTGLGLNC

PI4P5Kα, sequence (Q99755 whole entry): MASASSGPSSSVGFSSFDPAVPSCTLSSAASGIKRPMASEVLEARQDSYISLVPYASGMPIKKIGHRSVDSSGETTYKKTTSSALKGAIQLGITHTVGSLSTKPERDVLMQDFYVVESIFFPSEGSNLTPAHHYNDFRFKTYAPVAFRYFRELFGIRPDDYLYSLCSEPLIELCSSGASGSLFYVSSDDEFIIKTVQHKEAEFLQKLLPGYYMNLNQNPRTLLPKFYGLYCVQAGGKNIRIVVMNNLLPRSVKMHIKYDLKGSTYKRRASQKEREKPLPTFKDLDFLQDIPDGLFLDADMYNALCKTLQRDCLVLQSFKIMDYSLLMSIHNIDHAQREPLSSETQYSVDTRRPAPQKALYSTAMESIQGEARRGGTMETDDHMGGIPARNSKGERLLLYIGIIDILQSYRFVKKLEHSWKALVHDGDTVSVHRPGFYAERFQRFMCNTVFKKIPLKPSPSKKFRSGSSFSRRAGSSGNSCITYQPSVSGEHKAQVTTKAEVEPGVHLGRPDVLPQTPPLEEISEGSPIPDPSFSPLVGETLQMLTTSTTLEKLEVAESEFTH
RSK2, sequence (P51812 whole entry): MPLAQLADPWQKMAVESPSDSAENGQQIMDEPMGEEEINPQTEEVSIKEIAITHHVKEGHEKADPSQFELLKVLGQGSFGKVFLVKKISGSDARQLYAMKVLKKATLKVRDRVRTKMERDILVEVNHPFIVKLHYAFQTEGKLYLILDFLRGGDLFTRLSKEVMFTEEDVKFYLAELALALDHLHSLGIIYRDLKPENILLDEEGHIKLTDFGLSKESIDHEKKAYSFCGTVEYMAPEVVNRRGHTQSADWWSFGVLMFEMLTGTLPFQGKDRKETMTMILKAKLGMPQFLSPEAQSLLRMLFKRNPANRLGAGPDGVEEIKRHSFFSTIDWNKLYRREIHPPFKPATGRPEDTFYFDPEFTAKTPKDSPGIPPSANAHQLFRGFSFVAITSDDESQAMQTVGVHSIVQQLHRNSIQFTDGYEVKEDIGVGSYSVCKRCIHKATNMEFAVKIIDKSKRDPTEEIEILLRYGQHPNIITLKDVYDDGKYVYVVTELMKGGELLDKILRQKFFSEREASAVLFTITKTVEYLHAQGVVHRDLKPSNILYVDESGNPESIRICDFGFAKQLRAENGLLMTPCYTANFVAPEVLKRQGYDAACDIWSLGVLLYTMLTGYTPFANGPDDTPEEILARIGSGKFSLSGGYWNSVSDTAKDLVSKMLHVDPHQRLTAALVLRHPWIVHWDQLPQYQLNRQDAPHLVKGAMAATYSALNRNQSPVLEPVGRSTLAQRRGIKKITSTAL
Plk1, sequence (P53350 whole entry): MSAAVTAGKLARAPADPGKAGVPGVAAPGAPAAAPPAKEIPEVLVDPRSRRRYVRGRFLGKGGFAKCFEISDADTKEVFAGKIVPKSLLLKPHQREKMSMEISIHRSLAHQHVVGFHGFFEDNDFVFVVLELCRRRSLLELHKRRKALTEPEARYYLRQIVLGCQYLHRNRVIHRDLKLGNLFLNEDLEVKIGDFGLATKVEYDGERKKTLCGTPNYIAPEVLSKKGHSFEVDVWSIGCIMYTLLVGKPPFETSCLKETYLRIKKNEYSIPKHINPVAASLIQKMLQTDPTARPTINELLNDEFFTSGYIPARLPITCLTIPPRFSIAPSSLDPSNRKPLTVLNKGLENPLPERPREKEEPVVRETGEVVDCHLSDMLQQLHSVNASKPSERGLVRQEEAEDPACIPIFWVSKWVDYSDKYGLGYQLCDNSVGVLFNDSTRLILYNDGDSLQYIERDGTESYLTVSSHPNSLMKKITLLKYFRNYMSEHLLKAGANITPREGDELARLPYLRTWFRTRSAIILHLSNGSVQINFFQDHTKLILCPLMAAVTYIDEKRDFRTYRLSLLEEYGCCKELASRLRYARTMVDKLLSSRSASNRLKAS
PLK2, sequence (Q9NYY3 whole entry): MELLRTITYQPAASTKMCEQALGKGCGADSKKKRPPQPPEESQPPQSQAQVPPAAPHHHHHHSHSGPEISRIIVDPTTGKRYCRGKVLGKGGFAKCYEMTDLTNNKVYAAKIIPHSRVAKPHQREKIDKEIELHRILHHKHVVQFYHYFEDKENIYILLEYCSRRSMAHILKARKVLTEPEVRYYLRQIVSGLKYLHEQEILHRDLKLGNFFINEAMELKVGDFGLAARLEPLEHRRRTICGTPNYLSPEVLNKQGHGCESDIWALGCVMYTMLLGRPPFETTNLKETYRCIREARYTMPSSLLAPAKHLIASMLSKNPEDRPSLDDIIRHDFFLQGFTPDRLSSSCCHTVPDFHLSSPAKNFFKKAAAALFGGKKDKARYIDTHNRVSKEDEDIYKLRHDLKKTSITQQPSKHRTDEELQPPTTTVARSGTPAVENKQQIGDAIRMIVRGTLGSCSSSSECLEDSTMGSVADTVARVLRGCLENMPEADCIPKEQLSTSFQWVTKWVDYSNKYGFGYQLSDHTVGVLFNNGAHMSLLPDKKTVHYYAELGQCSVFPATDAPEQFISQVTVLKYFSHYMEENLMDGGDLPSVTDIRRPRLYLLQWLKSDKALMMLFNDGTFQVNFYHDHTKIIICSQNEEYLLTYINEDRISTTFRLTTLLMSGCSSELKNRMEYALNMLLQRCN

CN1C(=O)[C@@H](CC2CCCC2)N(C2CCCC2)c2nc(Nc3cc(Cl)c(O)c(Cl)c3)ncc21 [7a, (R)-8-cyclopentyl-7-(cyclopentylmethyl)-2-((3,5-dichloro-4-hydroxyphenyl)amino)-5-methyl-7,8-dihydropteridin-6(5H)-one]
inhibition of other lipid kinases of the panel [1]: did not inhibit most PI3Ks, PI4Ks or sphingosine kinases
lactate fermentation (BT474 cells [2]; absence of serum): slightly increased
metabolic switch induced by serum (glucose consumption, lactate secretion) (BT474 cells [2]; with serum): prevented
remaining activity at 0.5 µM (NEK1): 67%
inhibition of p110α/p85α (p110α/p85α): not inhibited
Ki (PI3Kδ): ~120 nM
cell death (MCF10A p53(−/−) cells [3]): selectively kills p53(−/−) cells
remaining activity at 0.5 µM (EIF2AK3): 50%
Ki (PI4P5Kα): ~5000 nM
remaining activity at 0.5 µM (PI4P5Kα; read-out: PI4P5Kα activity remaining): 95%
remaining activity at 0.5 µM (c-MER): 67%
inhibition of Plk1 (Plk1): no longer inhibited
remaining activity at 0.5 µM (PLK2): 75%
ROS (BT-474 cells): increased
ADP concentration (C2Cl2 myotubes [4]): unchanged
reduction of intracellular ATP level (C2Cl2 myotubes [4]; bioluminescence assay or HPLC, compound overnight): 15%
increase in AMP concentration (C2Cl2 myotubes [4]; triple quadrupole LC-MS/MS): 30%
Ki (RSK2): ~1000 nM
calculated RSK2 activity, % of DMSO control (RSK2; calculated for 0.5 μM 7a and 20 μM ATP): 79%
inhibition of Vps34 (Vps34): not inhibited
residual growth of p53(−/−) cells under EGFR inhibition (MCF10A p53(−/−) cells [5]; 10 μM 7a): eliminated
sensitivity of growth of p53(−/−) vs p53(+/+) cells (MCF10A p53(−/−) cells [5]; without EGF supplement): more sensitive
basal and insulin-induced phosphorylation of S6K at Thr-389 (C2Cl2 myotubes [6]): reduced
phosphorylation of acetyl-CoA carboxylase (ACC) (C2Cl2 myotubes [6]; C2Cl2 myotubes, dose-dependent): significantly increased
IRS phosphorylation at Ser-302 (C2Cl2 myotubes [6]; FIG. 3D): reduced
Akt phosphorylation (C2Cl2 myotubes [6]; FIG. 3D, comparison 7a vs rapamycin): more pronounced effect
hormone-induced Akt phosphorylation, especially at Ser-473 (C2Cl2 myotubes [6]; overnight incubation with 20 μM): increased
ACC phosphorylation / AMPK activation (AMPK): activated
sensitivity of BT474 growth to inhibition at 32° C. (BT474 cells [7]; 32° C. (restores p53 function)): less sensitive
growth of BT474 cells (BT474 cells [7]; dose-dependent, 37° C.): inhibited
Ki (PIKfyve): ~200 nM
